Assay [1] deals with erythroid progenitor cells (EPCs). Kind of assay: Fetal hemoglobin (HbF) ELISA in day 7 erythroid progenitor cells.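 Also: for fetal hemoglobin induction normalized to vehicle-treated cells.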 In kind it is cell-based, human. The conditions noted are these: Homo sapiens, Erythroid progenitor cell, HbF ELISA, day 7 EPCs, 5 days; read-out: EPC ELISA (pEC50 category) (converted). The method, boiled down: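 Read-out was OD450 from an HRP/TMB sandwich ELISA on lysates, normalized to DMSO-only control wells. Thawed day 7 EPCs from human marrow CD34+ cells had been treated for 5 days at 37° C with Compound A, 22 concentrations […].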

The next assay addresses DNMT1 (Homo sapiens, UniProt P26358). Description: DNMT1 biochemical activity, breaklight assay and/or SPA assay.
Where [2] appears, read: binned activity in either the breaklight or the SPA assay.
Setting [3] is: binned activity in either the breaklight or the SPA assay, read-out: DNMT1 BioChemical (pIC50 category) (converted).
Where [4] appears, read: breaklight assay and/or SPA assay, repeated experimental runs, read-out: average pIC50 against DNMT1 (converted).
Where [5] appears, read: breaklight assay and/or SPA assay, repeated experimental runs.

The structures appear in SMILES notation. Where “and” joins values, the source holds several entries; their conditions need not be identical. Equal entries are not always repeated. Structures can show the parent of a compound that is named as a salt. Where two headings read alike, the source gives them in different places.

Chain of DNMT1 (P26358 whole entry, looked up): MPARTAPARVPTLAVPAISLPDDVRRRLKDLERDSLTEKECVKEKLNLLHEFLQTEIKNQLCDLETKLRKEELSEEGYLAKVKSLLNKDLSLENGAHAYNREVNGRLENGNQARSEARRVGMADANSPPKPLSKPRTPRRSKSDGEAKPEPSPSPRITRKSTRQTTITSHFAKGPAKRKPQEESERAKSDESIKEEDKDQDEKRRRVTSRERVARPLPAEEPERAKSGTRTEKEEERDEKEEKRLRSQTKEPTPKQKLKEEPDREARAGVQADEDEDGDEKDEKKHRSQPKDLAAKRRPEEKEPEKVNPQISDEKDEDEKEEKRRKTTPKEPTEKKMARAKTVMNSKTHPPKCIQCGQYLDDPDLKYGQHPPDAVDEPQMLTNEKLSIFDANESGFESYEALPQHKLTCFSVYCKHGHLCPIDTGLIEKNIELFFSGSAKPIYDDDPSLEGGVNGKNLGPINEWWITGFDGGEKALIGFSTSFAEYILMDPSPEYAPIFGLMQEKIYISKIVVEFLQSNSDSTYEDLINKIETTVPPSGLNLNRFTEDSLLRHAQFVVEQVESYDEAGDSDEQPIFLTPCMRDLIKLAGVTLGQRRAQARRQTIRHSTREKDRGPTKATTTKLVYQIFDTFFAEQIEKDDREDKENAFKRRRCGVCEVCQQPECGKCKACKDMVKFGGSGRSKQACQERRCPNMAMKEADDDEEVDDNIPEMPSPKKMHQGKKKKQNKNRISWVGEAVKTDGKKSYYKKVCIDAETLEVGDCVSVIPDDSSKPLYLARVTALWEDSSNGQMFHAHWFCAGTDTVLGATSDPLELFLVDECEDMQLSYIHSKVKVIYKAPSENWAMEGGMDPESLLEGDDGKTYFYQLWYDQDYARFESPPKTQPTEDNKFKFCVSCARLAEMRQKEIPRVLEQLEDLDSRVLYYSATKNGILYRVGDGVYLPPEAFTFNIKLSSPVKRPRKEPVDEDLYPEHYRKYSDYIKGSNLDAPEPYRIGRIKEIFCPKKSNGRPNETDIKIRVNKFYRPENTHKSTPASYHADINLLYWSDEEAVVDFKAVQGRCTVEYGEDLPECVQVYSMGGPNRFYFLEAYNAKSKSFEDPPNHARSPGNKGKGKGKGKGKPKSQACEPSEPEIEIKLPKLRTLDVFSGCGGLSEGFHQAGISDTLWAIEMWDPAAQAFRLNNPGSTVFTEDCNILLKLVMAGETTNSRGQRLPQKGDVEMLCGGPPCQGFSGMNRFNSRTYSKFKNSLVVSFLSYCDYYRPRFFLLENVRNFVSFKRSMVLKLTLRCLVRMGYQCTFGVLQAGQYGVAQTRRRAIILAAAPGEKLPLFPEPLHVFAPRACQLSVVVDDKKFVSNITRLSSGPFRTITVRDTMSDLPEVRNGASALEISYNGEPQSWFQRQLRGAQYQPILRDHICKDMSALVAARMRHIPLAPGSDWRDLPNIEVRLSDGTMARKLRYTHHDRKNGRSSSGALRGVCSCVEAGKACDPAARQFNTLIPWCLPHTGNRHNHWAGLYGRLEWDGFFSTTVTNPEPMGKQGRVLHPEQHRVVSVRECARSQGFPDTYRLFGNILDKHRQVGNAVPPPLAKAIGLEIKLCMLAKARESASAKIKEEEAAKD

With `CCc1c(C#N)c(SC(C(N)=O)c2ccccc2)nc(N2CCCC(CNC)C2)c1C#N` (stereo not shown) [Example 566, 2-((3,5-dicyano-4-ethyl-6-(3-((methylamino)methyl)piperidin-1-yl)pyridin-2-yl)thio)-2-phenylacetamide], in assay [1], the EC50 is less than 316 nM. In addition, the “DNMT1 BioChemical (pIC50 category)” value on DNMT1 (setting [2]) was “D (Category D: ≥6.5)”.
For `CN(CC(=O)NCCN)c1nc(SC(C(N)=O)c2ccccc2)c(C#N)c(C2CC2)c1C#N` (stereo not shown) [Example 619, 2-((6-((2-amino-2-oxo-1-phenylethyl)thio)-3,5-dicyano-4-cyclopropylpyridin-2-yl)(methyl)amino)-N-(2-aminoethyl)acetamide hydrochloride] the same measures were 1000 to 31600 nM and “D (Category D: ≥6.5)”.
Consider `CCc1c(C#N)c(SC(C(N)=O)c2ccc(F)cc2F)nc(N2CC[C@H](O)C2)c1C#N` (stereo partly shown) [Example 430], for which the EC50 in assay [1] was 316 to 1000 nM. For the same molecule, the “DNMT1 BioChemical (pIC50 category)” value at DNMT1 (setting [2]) is reported as “D (Category D: ≥6.5)”.
`CCc1c(C#N)c(SCC(N)=O)nc(SC(C(N)=O)c2ccccc2)c1C#N` (stereo not shown) [Example 235, 2-((6-((2-Amino-2-oxoethyl)thio)-3,5-dicyano-4-ethylpyridin-2-yl)thio)-2-phenylacetamide]: the EC50 in assay [1] was 316 to 1000 nM. Moreover, at DNMT1 (setting [3]), the IC50 was 316 to 1000 nM.
As for `CCc1c(C#N)c(SC(C(N)=O)c2ccccc2)nc(N2CCC[C@@H](CNC(=O)CN)C2)c1C#N` (stereo partly drawn) [Example 589, 2-amino-N-(((3S)-1-(6-((2-amino-2-oxo-1-phenylethyl)thio)-3,5-dicyano-4-ethylpyridin-2-yl)piperidin-3-yl)methyl)acetamide], the EC50 in assay [1] was 316 to 1000 nM. The “DNMT1 BioChemical (pIC50 category)” value on DNMT1 (setting [2]) is recorded as “D (Category D: ≥6.5)”.
On to `CCc1c(C#N)c(SC(C(N)=O)c2ccccc2)nc(N2CCC(N3[C@H](C)CC[C@@H]3C)CC2)c1C#N` (stereo partly drawn) [Example 452, 2-((3,5-dicyano-6-(4-((2R,5S)-2,5-dimethylpyrrolidin-1-yl)piperidin-1-yl)-4-ethylpyridin-2-yl)thio)-2-phenylacetamide], for which the EC50 in assay [1] is less than 316 nM. For the same molecule, the “DNMT1 BioChemical (pIC50 category)” value at DNMT1 (setting [2]) is listed as “D (Category D: ≥6.5)”.
For `CCc1c(C#N)c(SCc2ccc(-c3cccnc3)cc2)nc(N2CCC(N3CCCC3)CC2)c1C#N` [Example 337, 4-Ethyl-2-((4-(pyridin-3-yl)benzyl)thio)-6-(4-(pyrrolidin-1-yl)piperidin-1-yl)pyridine-3,5-dicarbonitrile], the EC50 in assay [1] was more than 31600 nM. Further, the IC50 was 316 to 1000 nM at DNMT1 (setting [3]) and 3160 nM at DNMT1 (setting [4]).
With `CCc1c(C#N)c(SCc2ccc(N(C)S(C)(=O)=O)cc2)nc(N(C)CCNC)c1C#N` [Example 471, N-(4-(((3,5-dicyano-4-ethyl-6-(methyl(2-(methylamino)ethyl)amino)pyridin-2-yl)thio)methyl)phenyl)-N-methylmethanesulfonamide], the EC50 in assay [1] was less than 316 nM. Also, the “DNMT1 BioChemical (pIC50 category)” value on DNMT1 (setting [2]) is recorded as “D (Category D: ≥6.5)”.
In the case of `N#Cc1c(SC(C(N)=O)c2ccccc2)nc(N2CCC(O)C2)c(C#N)c1C1CC1` (stereo not shown) [Example 369, 2-((3,5-Dicyano-4-cyclopropyl-6-(3-hydroxypyrrolidin-1-yl)pyridin-2-yl)thio)-2-phenylacetamide], the EC50 in assay [1] is 1000 to 31600 nM. At DNMT1 (setting [2]), the “DNMT1 BioChemical (pIC50 category)” value is “D (Category D: ≥6.5)”.
As to `CCc1c(C#N)c(SCc2ccc(N(C)S(=O)(=O)C(F)F)cc2)nc(N2CCCN(C)CC2)c1C#N` [Example 602, N-(4-(((3,5-dicyano-4-ethyl-6-(4-methyl-1,4-diazepan-1-yl)pyridin-2-yl)thio)methyl)phenyl)-1,1-difluoro-N-methylmethanesulfonamide], the EC50 in assay [1] was less than 316 nM. Also, the IC50 at DNMT1 (setting [3]) is 316 to 1000 nM; at DNMT1 (setting [4]), 316 to 1000 nM and 501 nM.
`CCc1c(C#N)c(SC(C(N)=O)c2ccccc2)nc(N2CCC(N(C)CC(C)(C)OC)CC2)c1C#N` (stereo not shown) [Example 492, 2-((3,5-dicyano-4-ethyl-6-(4-((2-methoxy-2-methylpropyl)(methyl)amino)piperidin-1-yl)pyridin-2-yl)thio)-2-phenylacetamide]: in assay [1], the EC50 is less than 316 nM. The “DNMT1 BioChemical (pIC50 category)” value on DNMT1 (setting [2]) is on record as “D (Category D: ≥6.5)”.
For `CCc1c(C#N)c(SCc2ccc(N3CCCS3(=O)=O)cc2)nc(N2CCC(N)CC2)c1C#N` [Example 600, 2-(4-aminopiperidin-1-yl)-6-((4-(1,1-dioxidoisothiazolidin-2-yl)benzyl)thio)-4-ethylpyridine-3,5-dicarbonitrile] the same measures were more than 31600 nM and “D (Category D: ≥6.5)”.
`CCc1c(C#N)c(SC(C(N)=O)c2ccc(F)cc2)nc(N2CCC(NC)CC2)c1C#N` (stereo not shown) [Example 526, 2-((3,5-dicyano-4-ethyl-6-(4-(methylamino)piperidin-1-yl)pyridin-2-yl)thio)-2-(4-fluorophenyl)acetamide]: the EC50 in assay [1] was less than 316 nM. The IC50 at DNMT1 (setting [3]) is less than 316 nM.
As for `CCc1c(C#N)c(SC(C(N)=O)c2ccccc2)nc(N(C)CC(=O)N2C[C@H](CO)[C@@H](O)C2)c1C#N` (stereo partly drawn) [Example 664, 2-((3,5-dicyano-4-ethyl-6-((2-((3R,4R)-3-hydroxy-4-(hydroxymethyl)pyrrolidin-1-yl)-2-oxoethyl)(methyl)amino)pyridin-2-yl)thio)-2-phenylacetamide], in assay [1], the EC50 was 1000 to 31600 nM. Besides, the “DNMT1 BioChemical (pIC50 category)” value on DNMT1 (setting [2]) is “D (Category D: ≥6.5)”.
Take `CCc1c(C#N)c(SC(C(N)=O)c2ccccc2)nc(N2CCC(NCC(C)(C)C)CC2)c1C#N` (stereo not shown) [Example 550, 2-((3,5-dicyano-4-ethyl-6-(4-(neopentylamino)piperidin-1-yl)pyridin-2-yl)thio)-2-phenylacetamide]: the EC50 in assay [1] is less than 316 nM. Also, the “DNMT1 BioChemical (pIC50 category)” value at DNMT1 (setting [2]) was “D (Category D: ≥6.5)”.
Consider `CCc1c(C#N)c(SCc2ccc(N(C)S(C)(=O)=O)cc2)nc(N2CCOC(CN3CCCC3)C2)c1C#N` (stereo not shown) [Example 574, N-(4-(((3,5-dicyano-4-ethyl-6-(2-(pyrrolidin-1-ylmethyl)morpholino)pyridin-2-yl)thio)methyl)phenyl)-N-methylmethanesulfonamide], for which, in assay [1], the EC50 was less than 316 nM. Further, the “DNMT1 BioChemical (pIC50 category)” value on DNMT1 (setting [2]) is “D (Category D: ≥6.5)”.
With `CCc1c(C#N)c(S[C@@H](C(N)=O)c2ccccc2)nc(N2CC[C@H](OP(=O)(O)O)C2)c1C#N` [Example 418, (S)-1-(6-(((R-2-amino-2-oxo-1-phenylethyl)thio-3,5-dicyano-4-ethylpyridin-2-yl)pyrrolidin-3-yldihydrogen phosphate], the EC50 in assay [1] was more than 31600 nM. At DNMT1 (setting [3]), the IC50 was 1000 to 31600 nM.
Regarding `CCc1c(C#N)c(SC(C(N)=O)c2ccccc2)nc(N2CCC(NC(=O)C(C)(C)N)CC2)c1C#N` (stereo not shown) [Example 148], the EC50 in assay [1] was less than 316 nM. The “DNMT1 BioChemical (pIC50 category)” value on DNMT1 (setting [2]) was “D (Category D: ≥6.5)”. The “average pIC50 against DNMT1” value at DNMT1 (setting [5]) is recorded as more than 6.5.
As to `CCc1c(C#N)c(SC(C(N)=O)c2cc(OC)ccn2)nc(N2CCCN(C)CC2)c1C#N` (stereo not shown) [Example 214, 2-((3,5-Dicyano-4-ethyl-6-(4-methyl-1,4-diazepan-1-yl)pyridin-2-yl)thio)-2-(4-methoxypyridin-2-yl)acetamide], the EC50 in assay [1] is more than 31600 nM. Further, the IC50 at DNMT1 (setting [3]) was 1000 to 31600 nM.
Take `CCc1c(C#N)c(SC(C(N)=O)c2ccccc2)nc(N(C)CC(=O)N(C)CCO)c1C#N` (stereo not shown) [Example 606, 2-((6-((2-amino-2-oxo-1-phenylethyl)thio)-3,5-dicyano-4-ethylpyridin-2-yl)(methyl)amino)-N-(2-hydroxyethyl)-N-methylacetamide]: the EC50 in assay [1] is less than 316 nM. Also, on DNMT1 (setting [2]), the “DNMT1 BioChemical (pIC50 category)” value was “D (Category D: ≥6.5)”.
Regarding `CCc1c(C#N)c(SC(C(N)=O)c2cccc(P(C)(C)=O)c2)nc(N(C)C)c1C#N` (stereo not shown) [Example 419, 2-((3,5-Dicyano-6-(dimethylamino)-4-ethylpyridin-2-yl)thio)-2-(3-(dimethylphosphoryl)phenyl)acetamide], in assay [1], the EC50 was 1000 to 31600 nM. Besides, the IC50 on DNMT1 (setting [3]) is 316 to 1000 nM.
Regarding `CCc1c(C#N)c(SCc2ccc(N(C)S(C)(=O)=O)cc2)nc(N2CCOC(CN)C2)c1C#N` (stereo not shown) [Example 591, N-(4-(((6-(2-(aminomethyl)morpholino)-3,5-dicyano-4-ethylpyridin-2-yl)thio)methyl)phenyl)-N-methylmethanesulfonamide], in assay [1], the EC50 is less than 316 nM. For the same molecule, the “DNMT1 BioChemical (pIC50 category)” value at DNMT1 (setting [2]) is “D (Category D: ≥6.5)”.
As to `CCc1c(C#N)c(SC(C(N)=O)c2ccccc2)nc(N2CCO[C@H](CN(CC)CC)C2)c1C#N` (stereo partly drawn) [Example 578, 2-((3,5-dicyano-6-((R)-2-((diethylamino)methyl)morpholino)-4-ethylpyridin-2-yl)thio)-2-phenylacetamide], the EC50 in assay [1] was less than 316 nM. Further, the “DNMT1 BioChemical (pIC50 category)” value on DNMT1 (setting [2]) is on record as “D (Category D: ≥6.5)”.
Consider `CCc1c(C#N)c(SC(C(N)=O)c2ccccc2)nc(N(C)CCN2CCCCCC2)c1C#N` (stereo not shown) [Example 477, 2-((6-((2-(azepan-1-yl)ethyl)(methyl)amino)-3,5-dicyano-4-ethylpyridin-2-yl)thio)-2-phenylacetamide], for which the EC50 in assay [1] was less than 316 nM. At DNMT1 (setting [2]), the “DNMT1 BioChemical (pIC50 category)” value was “D (Category D: ≥6.5)”. At DNMT1 (setting [5]), the “average pIC50 against DNMT1” value is listed as more than 6.5. Further, on DNMT1 (setting [4]), the IC50 was 100 nM.
For `CCc1c(C#N)c(SCc2ccc(N(C)S(C)(=O)=O)cc2)nc(N2CCCN(C)CC2)c1C#N` [Example 355, N-(4-(((3,5-Dicyano-4-ethyl-6-(4-methyl-1,4-diazepan-1-yl)pyridin-2-yl)thio)methyl)phenyl)-N-methylmethanesulfonamide], the EC50 in assay [1] was less than 316 nM. Moreover, the “DNMT1 BioChemical (pIC50 category)” value at DNMT1 (setting [2]) is “D (Category D: ≥6.5)”.

The values are drawn from patent publication US10975056B2 (GlaxoSmithKline Intellectual Property Development Limited, priority 2016, dated 2021).
